Data published in publication PMC5290327, “SC83288 is a clinical development candidate for the treatment of severe malaria” (Nature Communications, 2017).

Tests used:
Experiment in all cases: KINOMEscan
Format in all cases: binding
Conditions in all cases: read-out: Remaining enzyme activity
CAMKK2 = target: T1, CAMKK2 (Homo sapiens, UniProt Q96RR4)
T1 construct: purchased Ambit (DiscoverX) KINOMEscan; Cerep
Procedure, shortened: (§1)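 SC81458 was screened at a single 10 μM final concentration for its ability to compete with an immobilized, active-site directed ligand for each kinase. Kinase in the eluates was measured by quantitative PCR. Beads were blocked with biotin and SeaBlock buffer holding 1% BSA, 0.05% Tween 20 and 1 mM DTT.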

PDGFRa = target: T2, PDGFRa (Homo sapiens, UniProt P16234)
T2 construct: purchased Ambit (DiscoverX) KINOMEscan; Cerep
Procedure, shortened: as §1

MST4 = target: T3, MST4 (Homo sapiens, UniProt Q9P289)
T3 construct: purchased Ambit (DiscoverX) KINOMEscan; Cerep
Procedure, shortened: as §1

FAK = target: T4, FAK (Homo sapiens, UniProt Q05397)
T4 construct: purchased Ambit (DiscoverX) KINOMEscan; Cerep
Procedure, shortened: as §1

PRKD1 = target: T5, PRKD1 (Homo sapiens, UniProt Q15139)
T5 construct: purchased Ambit (DiscoverX) KINOMEscan; Cerep
Procedure, shortened: as §1

PDPK1 = target: T6, PDPK1 (Homo sapiens, UniProt O15530)
T6 construct: purchased Ambit (DiscoverX) KINOMEscan; Cerep
Procedure, shortened: as §1

IKK-beta = target: T7, IKK-beta (Homo sapiens, UniProt O14920)
T7 construct: purchased Ambit (DiscoverX) KINOMEscan; Cerep
Procedure, shortened: as §1

LIMK2 = target: T8, LIMK2 (Homo sapiens, UniProt P53671)
T8 construct: purchased Ambit (DiscoverX) KINOMEscan; Cerep
Procedure, shortened: as §1

ROS1 = target: T9, ROS1 (Homo sapiens, UniProt P08922)
T9 construct: purchased Ambit (DiscoverX) KINOMEscan; Cerep
Procedure, shortened: as §1

PRKX = target: T10, PRKX (Homo sapiens, UniProt P51817)
T10 construct: purchased Ambit (DiscoverX) KINOMEscan; Cerep
Procedure, shortened: as §1

IGF1R = target: T11, IGF1R (Homo sapiens, UniProt P08069)
T11 construct: purchased Ambit (DiscoverX) KINOMEscan; Cerep
Procedure, shortened: as §1

SRPK2 = target: T12, SRPK2 (Homo sapiens, UniProt P78362)
T12 construct: purchased Ambit (DiscoverX) KINOMEscan; Cerep
Procedure, shortened: as §1

CIT = target: T13, CIT (Homo sapiens, UniProt O14578)
T13 construct: purchased Ambit (DiscoverX) KINOMEscan; Cerep
Procedure, shortened: as §1

FLT3(D835H) = target: T14, FLT3(D835H) (Homo sapiens, UniProt P36888, D835H)
T14 construct: purchased Ambit (DiscoverX) KINOMEscan; Cerep
Procedure, shortened: as §1

BMPR1a = target: T15, BMPR1a (Homo sapiens, UniProt P36894)
T15 construct: purchased Ambit (DiscoverX) KINOMEscan; Cerep
Procedure, shortened: as §1

CSNK1g1 = target: T16, CSNK1g1 (Homo sapiens, UniProt Q9HCP0)
T16 construct: purchased Ambit (DiscoverX) KINOMEscan; Cerep
Procedure, shortened: as §1

MAP3K2 = target: T17, MAP3K2 (Homo sapiens, UniProt Q9Y2U5)
T17 construct: purchased Ambit (DiscoverX) KINOMEscan; Cerep
Procedure, shortened: as §1

DYRK2 = target: T18, DYRK2 (Homo sapiens, UniProt Q92630)
T18 construct: purchased Ambit (DiscoverX) KINOMEscan; Cerep
Procedure, shortened: as §1

FGFR4 = target: T19, FGFR4 (Homo sapiens, UniProt P22455)
T19 construct: purchased Ambit (DiscoverX) KINOMEscan; Cerep
Procedure, shortened: as §1

EGFR = target: T20, EGFR (Homo sapiens, UniProt P00533)
T20 construct: purchased Ambit (DiscoverX) KINOMEscan; Cerep
Procedure, shortened: as §1

RIOK3 = target: T21, RIOK3 (Homo sapiens, UniProt O14730)
T21 construct: purchased Ambit (DiscoverX) KINOMEscan; Cerep
Procedure, shortened: as §1

MST1 = target: T22, MST1 (Homo sapiens, UniProt Q13043)
T22 construct: purchased Ambit (DiscoverX) KINOMEscan; Cerep
Procedure, shortened: as §1

FLT3 = target: T23, FLT3 (Homo sapiens, UniProt P36888)
T23 construct: purchased Ambit (DiscoverX) KINOMEscan; Cerep
Procedure, shortened: as §1

PRKCQ = target: T24, PRKCQ (Homo sapiens, UniProt Q04759)
T24 construct: purchased Ambit (DiscoverX) KINOMEscan; Cerep
Procedure, shortened: as §1

PAK1 = target: T25, PAK1 (Homo sapiens, UniProt Q13153)
T25 construct: purchased Ambit (DiscoverX) KINOMEscan; Cerep
Procedure, shortened: as §1

[1] = target: T26, RPS6KA6(Kin.Dom.2-C-term) (Homo sapiens, UniProt Q9UK32)
T26 construct: RPS6KA6(Kin.Dom.2-C-term); purchased Ambit (DiscoverX) KINOMEscan; Cerep
Procedure, shortened: as §1

NDR2 = target: T27, NDR2 (Homo sapiens, UniProt Q9Y2H1)
T27 construct: purchased Ambit (DiscoverX) KINOMEscan; Cerep
Procedure, shortened: as §1

ERK1 = target: T28, ERK1 (Homo sapiens, UniProt P27361)
T28 construct: purchased Ambit (DiscoverX) KINOMEscan; Cerep
Procedure, shortened: as §1

[2] = target: T29, RPS6KA5(Kin.Dom.2-C-term) (Homo sapiens, UniProt O75582)
T29 construct: RPS6KA5(Kin.Dom.2-C-term); purchased Ambit (DiscoverX) KINOMEscan; Cerep
Procedure, shortened: as §1

MKNK1 = target: T30, MKNK1 (Homo sapiens, UniProt Q9BUB5)
T30 construct: purchased Ambit (DiscoverX) KINOMEscan; Cerep
Procedure, shortened: as §1

PRKCD = target: T31, PRKCD (Homo sapiens, UniProt Q05655)
T31 construct: purchased Ambit (DiscoverX) KINOMEscan; Cerep
Procedure, shortened: as §1

AKT2 = target: T32, AKT2 (Homo sapiens, UniProt P31751)
T32 construct: purchased Ambit (DiscoverX) KINOMEscan; Cerep
Procedure, shortened: as §1

BRSK2 = target: T33, BRSK2 (Homo sapiens, UniProt Q8IWQ3)
T33 construct: purchased Ambit (DiscoverX) KINOMEscan; Cerep
Procedure, shortened: as §1

T33 sequence (Q8IWQ3 whole entry): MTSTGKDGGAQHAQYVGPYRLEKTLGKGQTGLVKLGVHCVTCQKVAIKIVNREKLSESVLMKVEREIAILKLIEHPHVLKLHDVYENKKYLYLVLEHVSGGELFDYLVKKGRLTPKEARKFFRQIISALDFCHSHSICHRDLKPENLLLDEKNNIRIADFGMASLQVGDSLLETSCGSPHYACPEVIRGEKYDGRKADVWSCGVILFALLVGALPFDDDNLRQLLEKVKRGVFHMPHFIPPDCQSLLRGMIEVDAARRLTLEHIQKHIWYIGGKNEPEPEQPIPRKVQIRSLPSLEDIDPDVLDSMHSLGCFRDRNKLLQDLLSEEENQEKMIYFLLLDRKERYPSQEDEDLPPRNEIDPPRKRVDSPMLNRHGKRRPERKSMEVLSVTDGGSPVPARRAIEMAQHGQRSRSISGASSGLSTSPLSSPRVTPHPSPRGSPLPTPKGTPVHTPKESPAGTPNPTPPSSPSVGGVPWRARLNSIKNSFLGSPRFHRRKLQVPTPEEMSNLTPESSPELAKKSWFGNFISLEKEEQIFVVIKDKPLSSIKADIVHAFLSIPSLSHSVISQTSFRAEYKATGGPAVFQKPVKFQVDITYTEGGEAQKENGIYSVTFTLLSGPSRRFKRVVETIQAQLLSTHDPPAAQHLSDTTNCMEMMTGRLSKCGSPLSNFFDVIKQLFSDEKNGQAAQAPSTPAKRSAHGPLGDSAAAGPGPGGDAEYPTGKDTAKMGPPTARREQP
T12 sequence (P78362 whole entry): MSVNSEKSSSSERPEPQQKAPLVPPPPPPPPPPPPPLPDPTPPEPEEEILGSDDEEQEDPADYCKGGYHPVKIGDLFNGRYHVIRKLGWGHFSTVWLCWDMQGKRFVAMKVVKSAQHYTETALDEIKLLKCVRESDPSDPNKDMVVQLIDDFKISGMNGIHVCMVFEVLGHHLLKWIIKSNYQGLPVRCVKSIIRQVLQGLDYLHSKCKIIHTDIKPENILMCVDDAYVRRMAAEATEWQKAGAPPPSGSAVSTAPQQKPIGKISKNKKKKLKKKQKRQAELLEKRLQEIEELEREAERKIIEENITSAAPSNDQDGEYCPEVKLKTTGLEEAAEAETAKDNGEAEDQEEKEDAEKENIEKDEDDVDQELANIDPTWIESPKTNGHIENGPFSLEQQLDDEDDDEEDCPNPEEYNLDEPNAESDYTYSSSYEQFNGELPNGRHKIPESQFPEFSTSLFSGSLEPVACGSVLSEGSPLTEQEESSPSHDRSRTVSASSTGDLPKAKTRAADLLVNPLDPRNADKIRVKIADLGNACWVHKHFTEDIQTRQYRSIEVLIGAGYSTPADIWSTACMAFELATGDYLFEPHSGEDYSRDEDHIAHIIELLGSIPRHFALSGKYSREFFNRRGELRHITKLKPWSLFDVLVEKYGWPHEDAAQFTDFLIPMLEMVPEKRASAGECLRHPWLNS
T19 sequence (P22455 22-802): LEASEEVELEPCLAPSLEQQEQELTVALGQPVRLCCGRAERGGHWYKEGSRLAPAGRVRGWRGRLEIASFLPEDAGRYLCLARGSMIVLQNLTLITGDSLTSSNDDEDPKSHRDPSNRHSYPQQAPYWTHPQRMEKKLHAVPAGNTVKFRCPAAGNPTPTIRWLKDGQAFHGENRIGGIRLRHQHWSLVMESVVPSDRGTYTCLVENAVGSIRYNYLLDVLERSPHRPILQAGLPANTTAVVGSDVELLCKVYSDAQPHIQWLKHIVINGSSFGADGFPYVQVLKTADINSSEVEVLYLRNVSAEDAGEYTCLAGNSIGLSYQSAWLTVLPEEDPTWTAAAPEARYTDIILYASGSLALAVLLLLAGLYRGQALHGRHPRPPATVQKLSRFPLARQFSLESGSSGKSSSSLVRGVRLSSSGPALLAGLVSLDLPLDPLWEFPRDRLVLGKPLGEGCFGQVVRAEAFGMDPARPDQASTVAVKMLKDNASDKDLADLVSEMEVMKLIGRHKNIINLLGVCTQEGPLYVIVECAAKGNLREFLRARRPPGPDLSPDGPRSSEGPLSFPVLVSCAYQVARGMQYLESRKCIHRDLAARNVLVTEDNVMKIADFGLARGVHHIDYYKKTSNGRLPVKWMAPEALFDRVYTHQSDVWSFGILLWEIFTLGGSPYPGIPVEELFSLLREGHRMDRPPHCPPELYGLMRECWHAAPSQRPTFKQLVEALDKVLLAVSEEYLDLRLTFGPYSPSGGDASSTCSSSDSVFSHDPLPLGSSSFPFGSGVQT
T18 sequence (Q92630 whole entry): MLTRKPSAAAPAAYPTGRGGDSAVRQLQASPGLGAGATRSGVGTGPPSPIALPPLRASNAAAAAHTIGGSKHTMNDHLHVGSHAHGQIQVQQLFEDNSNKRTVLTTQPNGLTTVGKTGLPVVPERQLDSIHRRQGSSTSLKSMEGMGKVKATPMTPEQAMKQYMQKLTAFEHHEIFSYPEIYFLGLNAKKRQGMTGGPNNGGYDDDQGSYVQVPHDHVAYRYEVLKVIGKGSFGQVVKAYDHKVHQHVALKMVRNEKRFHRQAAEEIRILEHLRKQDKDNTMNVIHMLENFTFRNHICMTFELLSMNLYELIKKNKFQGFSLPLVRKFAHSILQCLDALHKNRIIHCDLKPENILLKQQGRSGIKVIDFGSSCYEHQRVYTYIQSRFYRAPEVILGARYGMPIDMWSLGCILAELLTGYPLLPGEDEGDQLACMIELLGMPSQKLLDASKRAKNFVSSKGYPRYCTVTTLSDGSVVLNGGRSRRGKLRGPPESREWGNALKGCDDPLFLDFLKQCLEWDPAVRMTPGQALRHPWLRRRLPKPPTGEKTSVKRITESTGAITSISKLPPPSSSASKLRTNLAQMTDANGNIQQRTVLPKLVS
T26 sequence (Q9UK32 426-683 limits assumed): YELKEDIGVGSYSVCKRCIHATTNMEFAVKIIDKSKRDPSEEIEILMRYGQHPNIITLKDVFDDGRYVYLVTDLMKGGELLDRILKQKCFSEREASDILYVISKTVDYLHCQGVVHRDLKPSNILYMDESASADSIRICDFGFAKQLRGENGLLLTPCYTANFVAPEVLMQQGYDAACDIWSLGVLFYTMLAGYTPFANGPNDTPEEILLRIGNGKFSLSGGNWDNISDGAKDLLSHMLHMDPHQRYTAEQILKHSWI
T27 sequence (Q9Y2H1 whole entry): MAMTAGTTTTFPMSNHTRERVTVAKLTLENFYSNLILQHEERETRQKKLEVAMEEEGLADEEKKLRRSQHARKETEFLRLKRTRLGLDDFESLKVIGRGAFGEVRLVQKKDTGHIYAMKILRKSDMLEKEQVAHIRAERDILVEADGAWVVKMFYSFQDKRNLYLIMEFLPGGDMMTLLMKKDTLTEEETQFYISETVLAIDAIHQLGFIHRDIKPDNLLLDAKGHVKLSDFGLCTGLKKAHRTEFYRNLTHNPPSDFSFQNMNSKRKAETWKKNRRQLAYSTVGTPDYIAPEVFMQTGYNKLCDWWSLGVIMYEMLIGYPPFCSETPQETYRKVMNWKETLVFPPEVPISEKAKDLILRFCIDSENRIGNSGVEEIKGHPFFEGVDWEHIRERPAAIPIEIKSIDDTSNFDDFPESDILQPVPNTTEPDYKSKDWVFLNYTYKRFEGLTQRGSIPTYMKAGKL
T6 sequence (O15530 whole entry): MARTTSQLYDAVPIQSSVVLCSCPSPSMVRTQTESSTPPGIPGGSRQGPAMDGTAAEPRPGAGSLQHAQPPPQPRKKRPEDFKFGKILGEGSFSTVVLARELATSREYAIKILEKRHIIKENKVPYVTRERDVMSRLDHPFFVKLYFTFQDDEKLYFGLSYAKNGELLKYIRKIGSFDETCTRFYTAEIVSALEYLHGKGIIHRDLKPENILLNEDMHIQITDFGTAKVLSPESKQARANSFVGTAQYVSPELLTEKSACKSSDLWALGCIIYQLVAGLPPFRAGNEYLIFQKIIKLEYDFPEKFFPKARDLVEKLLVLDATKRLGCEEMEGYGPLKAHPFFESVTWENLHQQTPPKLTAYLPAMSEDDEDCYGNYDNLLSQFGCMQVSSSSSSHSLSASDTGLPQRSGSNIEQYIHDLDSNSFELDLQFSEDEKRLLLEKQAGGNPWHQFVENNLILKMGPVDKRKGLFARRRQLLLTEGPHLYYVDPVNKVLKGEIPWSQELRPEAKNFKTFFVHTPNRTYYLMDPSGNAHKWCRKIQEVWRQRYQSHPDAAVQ
T32 sequence (P31751 whole entry): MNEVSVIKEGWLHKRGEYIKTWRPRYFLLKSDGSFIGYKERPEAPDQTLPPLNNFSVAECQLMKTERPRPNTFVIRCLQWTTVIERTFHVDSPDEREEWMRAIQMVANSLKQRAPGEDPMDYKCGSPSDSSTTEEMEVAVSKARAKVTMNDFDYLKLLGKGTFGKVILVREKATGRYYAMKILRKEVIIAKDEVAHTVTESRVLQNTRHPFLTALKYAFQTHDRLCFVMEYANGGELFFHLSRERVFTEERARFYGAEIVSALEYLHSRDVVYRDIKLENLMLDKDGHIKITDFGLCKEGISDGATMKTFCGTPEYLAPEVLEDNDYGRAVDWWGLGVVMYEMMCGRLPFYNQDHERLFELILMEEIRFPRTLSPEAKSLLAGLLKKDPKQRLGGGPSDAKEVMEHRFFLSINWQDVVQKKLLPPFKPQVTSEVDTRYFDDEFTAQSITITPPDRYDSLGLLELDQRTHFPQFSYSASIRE
T29 sequence (O75582 426-687 limits assumed): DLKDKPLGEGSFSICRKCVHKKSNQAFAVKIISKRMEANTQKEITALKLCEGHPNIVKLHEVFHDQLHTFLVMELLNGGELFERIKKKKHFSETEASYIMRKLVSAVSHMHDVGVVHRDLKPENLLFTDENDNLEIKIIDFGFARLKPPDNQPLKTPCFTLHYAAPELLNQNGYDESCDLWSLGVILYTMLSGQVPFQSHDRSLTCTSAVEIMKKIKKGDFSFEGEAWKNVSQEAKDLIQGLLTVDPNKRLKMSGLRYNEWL

**Q.** What does the source list for `CCCCN1CCN(C(=N)c2cccc(NC(=O)Nc3ccc(S(=O)(=O)NCc4ccc(S(N)(=O)=O)cc4)cc3)c2)CC1` [SC81458, 4-(3-(3-((4-butylpiperazin-1-yl)(imino)methyl)phenyl)ureido)-N-(4-sulfamoylbenzyl) benzenesulfonamide]?
**A.** remaining binding at 10 µM (CAMKK2): 100%; remaining binding at 10 µM (PDGFRa): 87%; remaining binding at 10 µM (MST4): 100%; remaining binding at 10 µM (FAK): 100%; remaining binding at 10 µM (PRKD1): 65%; remaining binding at 10 µM (PDPK1): 74%; remaining binding at 10 µM (IKK-beta): 100%; remaining binding at 10 µM (LIMK2): 100%; remaining binding at 10 µM (ROS1): 100%; remaining binding at 10 µM (PRKX): 72%; remaining binding at 10 µM (IGF1R): 77%; remaining binding at 10 µM (SRPK2): 93%; remaining binding at 10 µM (CIT): 94%; remaining binding at 10 µM (FLT3(D835H)): 100%; remaining binding at 10 µM (BMPR1a): 100%; remaining binding at 10 µM (CSNK1g1): 100%; remaining binding at 10 µM (MAP3K2): 100%; remaining binding at 10 µM (DYRK2): 100%; remaining binding at 10 µM (FGFR4): 100%; remaining binding at 10 µM (EGFR): 100%; remaining binding at 10 µM (RIOK3): 77%; remaining binding at 10 µM (MST1): 100%; remaining binding at 10 µM (FLT3): 100%; remaining binding at 10 µM (PRKCQ): 100%; remaining binding at 10 µM (PAK1): 100%; remaining binding at 10 µM [1]: 100%; remaining binding at 10 µM (NDR2): 100%; remaining binding at 10 µM (ERK1): 99%; remaining binding at 10 µM [2]: 100%; remaining binding at 10 µM (MKNK1): 71%; remaining binding at 10 µM (PRKCD): 100%; remaining binding at 10 µM (AKT2): 84%; remaining binding at 10 µM (BRSK2): 100%
